tested on: microfilariae of Dirofilaria immitis; experiment: Dirofilaria immitis, Microfilaria (DiMF) In vitro Assay; assay type: cell-based; settings: 72 h, read-out: DiMF Minimum Effective Dose (MED), approximately 72 hours incubation, microfilariae assessed for survival or paralysis

Compared with `CC(C)C[C@H]1C(=O)O[C@H](Cc2cccc(Cn3cc(F)cn3)c2)C(=O)N(C)[C@@H](CC(C)C)C(=O)O[C@H](C)C(=O)N(C)[C@@H](CC(C)C)C(=O)O[C@H](Cc2ccccc2)C(=O)N(C)[C@@H](CC(C)C)C(=O)O[C@H](C)C(=O)N1C` [Example 5-1, (3S,6R,9S,12R,15S,18R,21S,24R)-6-benzyl-18-(3-((4-fluoro-1H-pyrazol-1-yl)methyl)benzyl)-3,9,15,21-tetraisobutyl-4,10,12,16,22,24-hexamethyl-1,7,13,19-tetraoxa-4,10,16,22-tetraazacyclotetracosan-2,5,8,11,14,17,20,23-octaone], `CC(C)C[C@H]1C(=O)O[C@H](Cc2cccc(Cn3cc(O)cn3)c2)C(=O)N(C)[C@@H](CC(C)C)C(=O)O[C@H](C)C(=O)N(C)[C@@H](CC(C)C)C(=O)O[C@H](Cc2ccccc2)C(=O)N(C)[C@@H](CC(C)C)C(=O)O[C@H](C)C(=O)N1C` [Example 5-3, (3S,6R,9S,12R,15S,18R,21S,24R)-6-benzyl-18-(3-((4-hydroxy-1H-pyrazol-1-yl)methyl)benzyl)-3,9,15,21-tetraisobutyl-4,10,12,16,22,24-hexamethyl-1,7,13,19-tetraoxa-4,10,16,22-tetraazacyclotetracosan-2,5,8,11,14,17,20,23-octaone] is higher in minimal effective concentration: 0.001 to 0.01 µM for the first, 0.01 to 0.1 µM for the second.

First: CC(C)C[C@H]1C(=O)O[C@H](Cc2cccc(Cn3cc([N+](=O)[O-])cn3)c2)C(=O)N(C)[C@@H](CC(C)C)C(=O)O[C@H](C)C(=O)N(C)[C@@H](CC(C)C)C(=O)O[C@H](Cc2ccccc2)C(=O)N(C)[C@@H](CC(C)C)C(=O)O[C@H](C)C(=O)N1C [Example 5-2, (3S,6R,9S,12R,15S,18R,21S,24R)-6-benzyl-3,9,15,21-tetraisobutyl-4,10,12,16,22,24-hexamethyl-18-(3-((4-nitro-1H-pyrazol-1-yl)methyl)benzyl)-1,7,13,19-tetraoxa-4,10,16,22-tetraazacyclotetracosan-2,5,8, 11,14,17,20,23-octaone]
Second: CC(C)C[C@H]1C(=O)O[C@H](Cc2cccc(Cn3nc(CO)cc3CO)c2)C(=O)N(C)[C@@H](CC(C)C)C(=O)O[C@H](C)C(=O)N(C)[C@@H](CC(C)C)C(=O)O[C@H](Cc2ccccc2)C(=O)N(C)[C@@H](CC(C)C)C(=O)O[C@H](C)C(=O)N1C [Example 5-4, (3S,6R,9S,12R,15S,18R,21S,24R)-6-benzyl-18-(3-((3,5-bis(hydroxymethyl)-1H-pyrazol-1-yl)methyl)benzyl)-3,9,15,21-tetraisobutyl-4,10,12,16,22,24-hexamethyl-1,7,13,19-tetraoxa-4,10,16,22-tetraazacyclotetracosan-2,5,8,11,14,17,20,23-octaone]
The minimal effective concentration of the first is lower: 0.001 to 0.01 µM for the first, 0.01 to 0.1 µM for the second.

`CC(C)C[C@H]1C(=O)O[C@H](Cc2cccc(Cn3nc(C4CC4)cc3C3CC3)c2)C(=O)N(C)[C@@H](CC(C)C)C(=O)O[C@H](C)C(=O)N(C)[C@@H](CC(C)C)C(=O)O[C@H](Cc2ccccc2)C(=O)N(C)[C@@H](CC(C)C)C(=O)O[C@H](C)C(=O)N1C` [Example 5-6, (3S,6R,9S,12R,15S,18R,21S,24R)-6-benzyl-18-(3-((3,5-dicyclopropyl-1H-pyrazol-1-yl)methyl)benzyl)-3,9,15,21-tetraisobutyl-4,10,12,16,22,24-hexamethyl-1,7,13,19-tetraoxa-4,10,16,22-tetraazacyclotetracosan-2,5,8,11,14,17,20,23-octaone] and `CC(C)C[C@H]1C(=O)O[C@H](Cc2ccc(Cn3ccnc3)cc2)C(=O)N(C)[C@@H](CC(C)C)C(=O)O[C@H](C)C(=O)N(C)[C@@H](CC(C)C)C(=O)O[C@H](Cc2ccc(Cn3ccnc3)cc2)C(=O)N(C)[C@@H](CC(C)C)C(=O)O[C@H](C)C(=O)N1C` [Example 6-2, (3S,6R,9S,12R,15S,18R,21S,24R)-6,18-bis[[4-(imidazol-1-ylmethyl)phenyl]methyl]-3,9,15,21-tetraisobutyl-4,10,12,16,22,24-hexamethyl-1,7,13,19-tetraoxa-4,10,16,22-tetrazacyclotetracosane-2,5,8,11,14,17,20,23-octaone] fall in the same range of minimal effective concentration: 0.01 to 0.1 µM for the first, 0.01 to 0.1 µM for the second.

First: Cc1nccn1Cc1ccc(C[C@H]2OC(=O)[C@H](CC(C)C)N(C)C(=O)[C@@H](C)OC(=O)[C@H](CC(C)C)N(C)C(=O)[C@@H](Cc3ccc(Cn4ccnc4C)cc3)OC(=O)[C@H](CC(C)C)N(C)C(=O)[C@@H](C)OC(=O)[C@H](CC(C)C)N(C)C2=O)cc1 [Example 6-1, (3S,6R,9S,12R,15S,18R,21S,24R)-3,9,15,21-tetraisobutyl-4,6,10,16,18,22-hexamethyl-12,24-bis[[4-[(2-methylimidazol-1-yl)methyl]phenyl]methyl]-1,7,13,19-tetraoxa-4,10,16,22-tetrazacyclotetracosane-2,5,8,11,14,17,20,23-octaone]
Second: CCc1nccn1Cc1ccc(C[C@H]2OC(=O)[C@H](CC(C)C)N(C)C(=O)[C@@H](C)OC(=O)[C@H](CC(C)C)N(C)C(=O)[C@@H](Cc3ccc(Cn4ccnc4CC)cc3)OC(=O)[C@H](CC(C)C)N(C)C(=O)[C@@H](C)OC(=O)[C@H](CC(C)C)N(C)C2=O)cc1 [Example 6-4, (3S,6R,9S,12R,15S,18R,21S,24R)-6,18-bis[[4-[(2-ethylimidazol-1-yl)methyl]phenyl]methyl]-3,9,15,21-tetraisobutyl-4,10,12,16,22,24-hexamethyl-1,7,13,19-tetraoxa-4,10,16,22-tetrazacyclotetracosane-2,5,8,11,14,17,20,23-octaone]
The minimal effective concentration of the first is lower: 0.001 to 0.01 µM for the first, 0.01 to 0.1 µM for the second.

`Cc1cn(Cc2ccc(C[C@H]3OC(=O)[C@H](CC(C)C)N(C)C(=O)[C@@H](C)OC(=O)[C@H](CC(C)C)N(C)C(=O)[C@@H](Cc4ccc(Cn5cc(C)nc5C)cc4)OC(=O)[C@H](CC(C)C)N(C)C(=O)[C@@H](C)OC(=O)[C@H](CC(C)C)N(C)C3=O)cc2)c(C)n1` [Example 6-5, (3S,6R,9S,12R,15S,18R,21S,24R)-6,18-bis(4-((2,4-dimethyl-1H-imidazol-1-yl)methyl)benzyl)-3,9,15,21-tetraisobutyl-4,10,12,16,22,24-hexamethyl-1,7,13,19-tetraoxa-4,10,16,22-tetraazacyclotetracosan-2,5,8,11,14,17,20,23-octaone] and `CC(C)C[C@H]1C(=O)O[C@H](Cc2ccc(Cn3ccnc3C(C)C)cc2)C(=O)N(C)[C@@H](CC(C)C)C(=O)O[C@H](C)C(=O)N(C)[C@@H](CC(C)C)C(=O)O[C@H](Cc2ccc(Cn3ccnc3C(C)C)cc2)C(=O)N(C)[C@@H](CC(C)C)C(=O)O[C@H](C)C(=O)N1C` [Example 6-8, (3S,6R,9S,12R,15S,18R,21S,24R)-3,9,15,21-tetraisobutyl-6,18-bis(4-((2-isopropyl-1H-imidazol-1-yl)methyl)benzyl)-4,10,12,16,22,24-hexamethyl-1,7,13,19-tetraoxa-4,10,16,22-tetraazacyclotetracosan-2,5,8,11,14,17,20,23-octaone] fall in the same range of minimal effective concentration: 0.01 to 0.1 µM for the first, 0.01 to 0.1 µM for the second.

Molecule `CC(C)C[C@H]1C(=O)O[C@H](Cc2ccc(Cn3ccnc3C(C)(C)C)cc2)C(=O)N(C)[C@@H](CC(C)C)C(=O)O[C@H](C)C(=O)N(C)[C@@H](CC(C)C)C(=O)O[C@H](Cc2ccc(Cn3ccnc3C(C)(C)C)cc2)C(=O)N(C)[C@@H](CC(C)C)C(=O)O[C@H](C)C(=O)N1C` [Example 6-6, (3S,6R,9S,12R,15S,18R,21S,24R)-6,18-bis[[4-[(2-tert-butylimidazol-1-yl)methyl]phenyl]methyl]-3,9,15,21-tetraisobutyl-4,10,12,16,22,24-hexamethyl-1,7,13,19-tetraoxa-4,10,16,22-tetrazacyclotetracosane-2,5,8,11,14,17,20,23-octaone] has a minimal effective concentration of 0.01 to 0.1 µM.

From patent publication US11331369B2, “Endoparasitic depsipeptides” (Zoetis Services LLC, priority 2017, dated 2022)
